Test results as given in patent publication US20240376094A2, “SELECTIVE BCL-XL PROTAC COMPOUNDS AND METHODS OF USE” (Les Laboratoires Servier, priority 2021, published 2024).

Key:
Format in all cases: cell-based
[1] = tested on: EBC-1 lung cancer cell line; experiment: EBC-1 cell proliferation, CellTiter-Glo assay; conditions: Homo sapiens, 120 h; Ebc-1 cell viability, CTG assay, 5 days of treatment; read-out: CTG 5 day Ebc1 GI50
Outline: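 EBC-1 cells seeded at 1000 per well overnight, then exposed to 10-point dilutions (0.508 nM–10 μM final) for 5 days at 37 °C, in triplicate. ATP luminescence by CellTiter-Glo, normalised to untreated wells; GI50 from four-parameter logistic fit, runs valid only with at least one doubling.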

[2] = target: T1, Bcl-xL (Homo sapiens, UniProt Q07817); experiment: HCT116 Bcl-xL degradation, capillary-based immunoassay (WES); conditions: HCT116, 24 h, 9-point serial dilution
T1 construct: Measured levels of Bcl-xL protein of HCT116 cells treated with the tested compounds; host or cells: HCT116
Outline: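 HCT116 cells treated 24 h with compound at 10/100 nM and/or 9-point dilution (quadruplicates), then lysed. Bcl-xL measured by capillary WES immunoassay, normalized to cofilin and expressed as % of untreated cells. DC50 from four-parameter curve fit.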

[3] = target: T2, HiBiT-tagged BCL-xL (Homo sapiens, UniProt Q07817); experiment: NCI-H1650 BCL-xL protein levels, Nano-Glo HiBiT Lytic Detection; conditions: NCI-H1650 expressing HiBiT-tagged BCL-xL, overnight incubation, read-out: Bcl-xl HIBIT NCIH1650 DC50
T2 construct: expressed in transfected cells; host or cells: NCI-H1650 (ATCC No. CRL-5883), engineered HiBiT cell line
Outline: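 NCI-H1650 cells expressing HiBiT-tagged BCL-xL (5000/well) were treated overnight at 37° C with 10 concentrations, final 0.508 nM-10 μM, in triplicate. Remaining BCL-xL measured by Nano-Glo HiBiT lytic luminescence, normalized to untreated cells; 50% values by four-parameter logistic fit.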

[4] = tested on: MOLT-4 cells; experiment: MOLT-4 cell viability, CTG assay; conditions: Homo sapiens, MOLT-4, 48 h
Outline: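 Cells grown in RPMI 1640 with 10% FBS at 37° C, 5% CO2, then exposed to compounds for 48 h (11-point 5-fold dilution, triplicates). ATP measured by CellTiter-Glo luminescence; IC50 from four-parameter fit versus control, mean of ≥2 independent experiments.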

T2 sequence (Q07817 whole entry): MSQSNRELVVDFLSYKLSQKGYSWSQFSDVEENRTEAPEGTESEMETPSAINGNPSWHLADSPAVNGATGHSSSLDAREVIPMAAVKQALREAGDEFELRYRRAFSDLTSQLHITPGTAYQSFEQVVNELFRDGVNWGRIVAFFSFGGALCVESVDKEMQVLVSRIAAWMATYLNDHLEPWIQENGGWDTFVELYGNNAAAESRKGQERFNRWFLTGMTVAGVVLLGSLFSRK
T1 sequence (Q07817 whole entry): as above

| Structure (SMILES) | GI50 [1] | DC50 [2] | DC50 [3] | IC50 [4] |
| --- | --- | --- | --- | --- |
| Cc1cc(N(CCCCN(C)C(=O)CCCCCCCCCC(=O)N[C@H](C(=O)N2C[C@H](O)C[C@H]2C(=O)N[C@@H](C)c2ccc(-c3scnc3C)cc2)C(C)(C)C)c2ccc(-c3cnn(CC45CC6(C)CC(C)(C4)CC(OCCN(C)C)(C6)C5)c3C)c(C(=O)O)n2)nnc1Nc1nc2ccccc2s1 [Example 114, 6-[[6-(1,3-benzothiazol-2-ylamino)-5-methyl-pyridazin-3-yl]-[4-[[11-[[(1S)-1-[(2S,4R)-4-hydroxy-2-[[(1S)-1-[4-(4-methylthiazol-5-yl)phenyl]ethyl]carbamoyl]pyrrolidine-1-carbonyl]-2,2-dimethyl-propyl]amino]-11-oxo-undecanoyl]-methyl-amino]butyl]amino]-3-[1-[[3-[2-(dimethylamino)ethoxy]-5,7-dimethyl-1-adamantyl]methyl]-5-methyl-pyrazol-4-yl]pyridine-2-carboxylic acid] | 1720 nM | 2.67 nM | 1 nM | 24.8 nM |
| Cc1ncsc1-c1ccc(CNC(=O)[C@@H]2C[C@@H](O)CN2C(=O)[C@@H](NC(=O)C2(F)CC2)C(C)(C)SCCCCCCCCCCCN(C)CCOC23CC4(C)CC(C)(CC(Cn5ncc(-c6ccc(N7CCCc8c7nnc(Nc7nc9ccccc9s7)c8C)nc6C(=O)O)c5C)(C4)C2)C3)cc1 [Example 117, 6-[3-(1,3-benzothiazol-2-ylamino)-4-methyl-6,7-dihydro-5H-pyrido[2,3-c]pyridazin-8-yl]-3-[1-[[3-[2-[11-[(2R)-2-[(1-fluorocyclopropanecarbonyl)amino]-3-[(2S,4R)-4-hydroxy-2-[[4-(4-methylthiazol-5-yl)phenyl]methylcarbamoyl]pyrrolidin-1-yl]-1,1-dimethyl-3-oxo-propyl]sulfanylundecyl-methyl-amino]ethoxy]-5,7-dimethyl-1-adamantyl]methyl]-5-methyl-pyrazol-4-yl]pyridine-2-carboxylic acid] | 89 nM | 1.17 nM | > 1670 nM | 8.25 nM |
| Cc1ncsc1-c1ccc(CNC(=O)[C@@H]2C[C@@H](O)CN2C(=O)[C@@H](NC(=O)C2(F)CC2)C(C)(C)SCCCCCCCCCCCCCN(C)CCOC23CC4(C)CC(C)(CC(Cn5ncc(-c6ccc(N7CCCc8c7nnc(Nc7nc9ccccc9s7)c8C)nc6C(=O)O)c5C)(C4)C2)C3)cc1 [Example 118, 6-[3-(1,3-benzothiazol-2-ylamino)-4-methyl-6,7-dihydro-5H-pyrido[2,3-c]pyridazin-8-yl]-3-[1-[[3-[2-[13-[(2R)-2-[(1-fluorocyclopropanecarbonyl)amino]-3-[(2S,4R)-4-hydroxy-2-[[4-(4-methylthiazol-5-yl)phenyl]methylcarbamoyl]pyrrolidin-1-yl]-1,1-dimethyl-3-oxo-propyl]sulfanyltridecyl-methyl-amino]ethoxy]-5,7-dimethyl-1-adamantyl]methyl]-5-methyl-pyrazol-4-yl]pyridine-2-carboxylic acid] | 84 nM | > 316 nM | > 1670 nM | 7.83 nM |
| Cc1c(Nc2nc3ccccc3s2)nnc2c1CCCN2c1ccc(-c2cnn(CC34CC5(C)CC(C)(C3)CC(OCCN(C)CCCCCCCCCCCCCCCOc3ccc6c(c3)C(=O)N(C3CCC(=O)NC3=O)C6=O)(C5)C4)c2C)c(C(=O)O)n1 (stereo not drawn) [Example 119, 6-[3-(1,3-benzothiazol-2-ylamino)-4-methyl-6,7-dihydro-5H-pyrido[2,3-c]pyridazin-8-yl]-3-[1-[[3-[2-[15-[2-(2,6-dioxo-3-piperidyl)-1,3-dioxo-isoindolin-5-yl]oxypentadecyl-methyl-amino]ethoxy]-5,7-dimethyl-1-adamantyl]methyl]-5-methyl-pyrazol-4-yl]pyridine-2-carboxylic acid] | 69 nM | 0.681 nM | > 1670 nM | 4.78 nM |
| Cc1ncsc1-c1ccc([C@H](C)NC(=O)[C@@H]2C[C@@H](O)CN2C(=O)[C@@H](NC(=O)CCCCCCNC(=O)c2nc(N3CCCc4c3nnc(Nc3nc5ccccc5s3)c4C)ccc2-c2cnn(CC34CC5(C)CC(C)(C3)CC(OCCN3CCCC3)(C5)C4)c2C)C(C)(C)C)cc1 [Example 120, 6-[3-(1,3-benzothiazol-2-ylamino)-4-methyl-6,7-dihydro-5H-pyrido[2,3-c]pyridazin-8-yl]-3-[1-[[3,5-dimethyl-7-(2-pyrrolidin-1-ylethoxy)-1-adamantyl]methyl]-5-methyl-pyrazol-4-yl]-N-[7-[[(1S)-1-[(2S,4R)-4-hydroxy-2-[[(1S)-1-[4-(4-methylthiazol-5-yl)phenyl]ethyl]carbamoyl]pyrrolidine-1-carbonyl]-2,2-dimethyl-propyl]amino]-7-oxo-heptyl]pyridine-2-carboxamide] | 119 nM | 1.68 nM | 1 nM | 7.29 nM |
| Cc1cc(N(CCCCN(C)C(=O)CCCCCCCCCCCC(=O)N[C@H](C(=O)N2C[C@H](O)C[C@H]2C(=O)N[C@@H](C)c2ccc(-c3scnc3C)cc2)C(C)(C)C)c2ccc(-c3cnn(C[C@]45C[C@]6(C)C[C@](C)(C4)C[C@@](OCCN(C)C)(C6)C5)c3C)c(C(=O)O)n2)nnc1Nc1nc2ccccc2s1 [Example 121, 6-[[6-(1,3-benzothiazol-2-ylamino)-5-methyl-pyridazin-3-yl]-[4-[[13-[[(1S)-1-[(2S,4R)-4-hydroxy-2-[[(1S)-1-[4-(4-methylthiazol-5-yl)phenyl]ethyl]carbamoyl]pyrrolidine-1-carbonyl]-2,2-dimethyl-propyl]amino]-13-oxo-tridecanoyl]-methyl-amino]butyl]amino]-3-[1-[[3-[2-(dimethylamino)ethoxy]-5,7-dimethyl-1-adamantyl]methyl]-5-methyl-pyrazol-4-yl]pyridine-2-carboxylic acid] | 190 nM | 2.57 nM | 1 nM | 9.99 nM |

Stronger by GI50 [1], values ahead:

| GI50 [1] | DC50 [2] | DC50 [3] | IC50 [4] | Structure (SMILES) |
| --- | --- | --- | --- | --- |
| 49 nM | > 316 nM | > 1670 nM | 20.6 nM | Cc1ncsc1-c1ccc([C@H](C)NC(=O)[C@@H]2C[C@@H](O)CN2C(=O)[C@@H](NC(=O)COCCOCCOCCN(C)CCOC23CC4(C)CC(C)(CC(Cn5ncc(-c6ccc(N7CCCc8c7nnc(Nc7nc9ccccc9s7)c8C)nc6C(=O)O)c5C)(C4)C2)C3)C(C)(C)C)cc1 [Example 113, 6-[3-(1,3-benzothiazol-2-ylamino)-4-methyl-6,7-dihydro-5H-pyrido[2,3-c]pyridazin-8-yl]-3-[1-[[3-[2-[2-[2-[2-[2-[[(1S)-1-[(2S,4R)-4-hydroxy-2-[[(1S)-1-[4-(4-methylthiazol-5-yl)phenyl]ethyl]carbamoyl]pyrrolidine-1-carbonyl]-2,2-dimethyl-propyl]amino]-2-oxo-ethoxy]ethoxy]ethoxy]ethyl-methyl-amino]ethoxy]-5,7-dimethyl-1-adamantyl]methyl]-5-methyl-pyrazol-4-yl]pyridine-2-carboxylic acid] |
| 46 nM | > 316 nM | > 1670 nM | 4.6 nM | Cc1ncsc1-c1ccc([C@H](C)NC(=O)[C@@H]2C[C@@H](O)CN2C(=O)[C@@H](NC(=O)CCCCNC(=O)c2nc(N3CCCc4c3nnc(Nc3nc5ccccc5s3)c4C)ccc2-c2cnn(CC34CC5(C)CC(C)(C3)CC(OCCN3CCCC3)(C5)C4)c2C)C(C)(C)C)cc1 [Example 122, 6-[3-(1,3-benzothiazol-2-ylamino)-4-methyl-6,7-dihydro-5H-pyrido[2,3-c]pyridazin-8-yl]-3-[1-[[3,5-dimethyl-7-(2-pyrrolidin-1-ylethoxy)-1-adamantyl]methyl]-5-methyl-pyrazol-4-yl]-N-[5-[[(1S)-1-[(2S,4R)-4-hydroxy-2-[[(1S)-1-[4-(4-methylthiazol-5-yl)phenyl]ethyl]carbamoyl]pyrrolidine-1-carbonyl]-2,2-dimethyl-propyl]amino]-5-oxo-pentyl]pyridine-2-carboxamide] |
| 45 nM | 3.6 nM | 1 nM | 16.1 nM | Cc1cc(N(CCCCN(C)C(=O)CCCCCCCCCCCCC(=O)N[C@H](C(=O)N2C[C@H](O)C[C@H]2C(=O)N[C@@H](C)c2ccc(-c3scnc3C)cc2)C(C)(C)C)c2ccc(-c3cnn(CC45CC6(C)CC(C)(C4)CC(OCCN(C)C)(C6)C5)c3C)c(C(=O)O)n2)nnc1Nc1nc2ccccc2s1 [Example 116, 6-[[6-(1,3-benzothiazol-2-ylamino)-5-methyl-pyridazin-3-yl]-[4-[[14-[[(1S)-1-[(2S,4R)-4-hydroxy-2-[[(1S)-1-[4-(4-methylthiazol-5-yl)phenyl]ethyl]carbamoyl]pyrrolidine-1-carbonyl]-2,2-dimethyl-propyl]amino]-14-oxo-tetradecanoyl]-methyl-amino]butyl]amino]-3-[1-[[3-[2-(dimethylamino)ethoxy]-5,7-dimethyl-1-adamantyl]methyl]-5-methyl-pyrazol-4-yl]pyridine-2-carboxylic acid] |
